From ChEMBL document CHEMBL1165865, “Design, synthesis and determination of antifungal activity of 5(6)-substituted benzotriazoles” (2010) come the findings set out here.

≈ marks a conversion by molar mass, not a printed value. Some results are limits rather than exact numbers.

Common to all, as to assay type: functional
One test concerns Candida albicans. Put plainly: Antifungal activity against Candida albicans ATCC 90028 after 24 hrs by macrodilution method. The note with it: ATCC 90028, 24 h.
A further test concerns Saccharomyces cerevisiae. Put plainly: Antifungal activity against Saccharomyces cerevisiae DSMZ 1333 after 24 hrs by macrodilution method. To be noted: DSMZ 1333, 24 h.
Another test relates to Candida parapsilosis. Put plainly: Antifungal activity against Candida parapsilosis ATCC 22019 after 24 hrs by macrodilution method. To be noted: Lodderomyces parapsilosis, ATCC 22019, 24 h.
Another test has as its system Pichia kudriavzevii. Put plainly: Antifungal activity against Candida krusei ATCC 30068 after 24 hrs by macrodilution method. To be noted: ATCC 30068, 24 h.
A further test deals with Nakaseomyces glabratus. In words: Antifungal activity against Candida glabrata ATCC 3916 after 24 hrs by macrodilution method. To be noted: ATCC 3916, 24 h.
The subject of a further test is Aspergillus niger. Put plainly: Antifungal activity against Aspergillus niger DSMZ 737 after 24 hrs by macrodilution method. The note with it: DSMZ 737, 24 h.

Usually MIC stands for the lowest concentration that inhibits growth of the organism. A higher MIC goes with a need for much substance. In the case of `Cc1ccc2c(c1)nnn2CC(O)(Cn1cncn1)c1ccc(F)cc1F` (racemic), the minimum inhibitory concentration (MIC) with Candida albicans amounted to 12.5 µg/mL (≈ 33.8 µM); in the test on Saccharomyces cerevisiae, 6.2 µg/mL (≈ 16.7 µM); against Candida parapsilosis, 12.5 µg/mL (≈ 33.8 µM); against Pichia kudriavzevii it was 25 µg/mL (≈ 67.5 µM); in the test on Nakaseomyces glabratus it was 25 µg/mL (≈ 67.5 µM); against Aspergillus niger, 50 µg/mL (≈ 135 µM).

`O=[N+]([O-])c1ccc2nnn(CC(O)(Cn3cncn3)c3ccc(F)cc3F)c2c1` (racemic): the minimum inhibitory concentration (MIC) with Candida albicans is 50 µg/mL (≈ 125 µM); against Saccharomyces cerevisiae, 100 µg/mL (≈ 249 µM); with Candida parapsilosis it was 100 µg/mL (≈ 249 µM); in the test with Pichia kudriavzevii, > 100 µg/mL; in the test with Nakaseomyces glabratus it was > 100 µg/mL; in the test on Aspergillus niger it was 100 µg/mL (≈ 249 µM).

Turning to `OC(Cn1cncn1)(Cn1nnc2cccnc21)c1ccc(F)cc1F` (racemic), the MIC against Candida albicans came to 6.2 µg/mL (≈ 17.4 µM); in the test with Saccharomyces cerevisiae, 50 µg/mL (≈ 140 µM); against Candida parapsilosis it was 25 µg/mL (≈ 70 µM); against Pichia kudriavzevii, 100 µg/mL (≈ 280 µM); against Nakaseomyces glabratus it was 100 µg/mL (≈ 280 µM); in the test with Aspergillus niger, 100 µg/mL (≈ 280 µM).

Consider `OC(Cn1cncn1)(Cn1nnc2cc(F)ccc21)c1ccc(F)cc1F` (racemic), for which the minimal inhibitory concentration (MIC) was found to be 25 µg/mL (≈ 66.8 µM) in the test with Candida albicans; 12.5 µg/mL (≈ 33.4 µM) against Saccharomyces cerevisiae; 3.1 µg/mL (≈ 8.28 µM) in the test with Candida parapsilosis; 50 µg/mL (≈ 134 µM) in the test with Pichia kudriavzevii; 25 µg/mL (≈ 66.8 µM) against Nakaseomyces glabratus; 100 µg/mL (≈ 267 µM) in the test with Aspergillus niger.

For the compound `O=[N+]([O-])c1ccc2c(c1)nnn2CC(O)(Cn1cncn1)c1ccc(F)cc1F` (racemic), the minimum inhibitory concentration (MIC) against Candida albicans turned out to be 1.6 µg/mL (≈ 3.99 µM); in the test on Saccharomyces cerevisiae, 12.5 µg/mL (≈ 31.1 µM); in the test with Candida parapsilosis, 6.2 µg/mL (≈ 15.4 µM); in the test with Pichia kudriavzevii, 50 µg/mL (≈ 125 µM); with Nakaseomyces glabratus, 100 µg/mL (≈ 249 µM); in the test with Aspergillus niger, 100 µg/mL (≈ 249 µM).

For the compound `OC(Cn1cncn1)(Cn1nnc2ccc(F)cc21)c1ccc(F)cc1F` (racemic), the MIC is 12.5 µg/mL (≈ 33.4 µM) with Candida albicans; 6.2 µg/mL (≈ 16.6 µM) against Saccharomyces cerevisiae; 25 µg/mL (≈ 66.8 µM) against Candida parapsilosis; > 100 µg/mL in the test on Pichia kudriavzevii; > 100 µg/mL with Nakaseomyces glabratus; > 100 µg/mL against Aspergillus niger.

As for `Cc1cc2nnn(CC(O)(Cn3cncn3)c3ccc(F)cc3F)c2cc1C` (racemic), the minimum inhibitory concentration (MIC) was 12.5 µg/mL (≈ 32.5 µM) in the test on Candida albicans; 50 µg/mL (≈ 130 µM) in the test on Saccharomyces cerevisiae; 50 µg/mL (≈ 130 µM) with Candida parapsilosis; > 100 µg/mL with Pichia kudriavzevii; 100 µg/mL (≈ 260 µM) against Nakaseomyces glabratus; 100 µg/mL (≈ 260 µM) in the test with Aspergillus niger.

Consider `OC(Cn1cncn1)(Cn1nnc2cc(Cl)ccc21)c1ccc(F)cc1F` (racemic), for which the minimal inhibitory concentration (MIC) was 6.2 µg/mL (≈ 15.9 µM) in the test with Candida albicans; 6.2 µg/mL (≈ 15.9 µM) against Saccharomyces cerevisiae; 12.5 µg/mL (≈ 32 µM) in the test on Candida parapsilosis; > 100 µg/mL against Pichia kudriavzevii; 50 µg/mL (≈ 128 µM) against Nakaseomyces glabratus; 25 µg/mL (≈ 64 µM) with Aspergillus niger.

`OC(Cn1cncn1)(Cn1nnc2ccc(Cl)cc21)c1ccc(F)cc1F` (racemic): the MIC in the test with Candida albicans was 6.2 µg/mL (≈ 15.9 µM); against Saccharomyces cerevisiae, 100 µg/mL (≈ 256 µM); against Candida parapsilosis, 100 µg/mL (≈ 256 µM); in the test with Pichia kudriavzevii, 100 µg/mL (≈ 256 µM); in the test with Nakaseomyces glabratus, > 100 µg/mL; against Aspergillus niger it was > 100 µg/mL.

Consider `Cc1ccc2nnn(CC(O)(Cn3cncn3)c3ccc(F)cc3F)c2c1` (racemic), for which the MIC in the test on Candida albicans stood at 25 µg/mL (≈ 67.5 µM); in the test with Saccharomyces cerevisiae it was 6.2 µg/mL (≈ 16.7 µM); against Candida parapsilosis it was 6.2 µg/mL (≈ 16.7 µM); against Pichia kudriavzevii it was 25 µg/mL (≈ 67.5 µM); against Nakaseomyces glabratus, 50 µg/mL (≈ 135 µM); in the test with Aspergillus niger, 12.5 µg/mL (≈ 33.8 µM).

`COc1ccc2c(c1)nnn2CC(O)(Cn1cncn1)c1ccc(F)cc1F` (racemic): the MIC with Candida albicans was 12.5 µg/mL (≈ 32.4 µM); in the test with Saccharomyces cerevisiae, 25 µg/mL (≈ 64.7 µM); against Candida parapsilosis, 12.5 µg/mL (≈ 32.4 µM); against Pichia kudriavzevii it was 50 µg/mL (≈ 129 µM); in the test on Nakaseomyces glabratus it was 50 µg/mL (≈ 129 µM); with Aspergillus niger it was 100 µg/mL (≈ 259 µM).

On to `Cc1cc2nn(CC(O)(Cn3cncn3)c3ccc(F)cc3F)nc2cc1C` (racemic), for which the MIC against Candida albicans stood at 1.6 µg/mL (≈ 4.16 µM); against Saccharomyces cerevisiae it was 6.2 µg/mL (≈ 16.1 µM); in the test with Candida parapsilosis, 3.1 µg/mL (≈ 8.06 µM); in the test on Pichia kudriavzevii, 100 µg/mL (≈ 260 µM); in the test on Nakaseomyces glabratus it was 25 µg/mL (≈ 65 µM); with Aspergillus niger, 25 µg/mL (≈ 65 µM).

In the case of `OC(Cn1cncn1)(Cn1nnc2ccccc21)c1ccc(F)cc1F` (racemic), the MIC was 0.8 µg/mL (≈ 2.25 µM) in the test on Candida albicans; 1.6 µg/mL (≈ 4.49 µM) in the test with Saccharomyces cerevisiae; 0.8 µg/mL (≈ 2.25 µM) with Candida parapsilosis; 25 µg/mL (≈ 70.2 µM) in the test with Pichia kudriavzevii; 25 µg/mL (≈ 70.2 µM) against Nakaseomyces glabratus; > 100 µg/mL in the test on Aspergillus niger.

Turning to `C[C@@H]1[C@H](O)[C@@H](C)/C=C/C=C/C=C/C=C/C=C/C=C/C=C/[C@H](O[C@@H]2O[C@H](C)[C@@H](O)[C@H](N)[C@@H]2O)C[C@@H]2O[C@](O)(C[C@@H](O)C[C@@H](O)[C@H](O)CC[C@@H](O)C[C@@H](O)CC(=O)O[C@H]1C)C[C@H](O)[C@H]2C(=O)O` [AMPHOTERICIN B], the MIC amounted to 0.4 µg/mL (≈ 0.433 µM) against Candida albicans; 0.4 µg/mL (≈ 0.433 µM) against Saccharomyces cerevisiae; 0.4 µg/mL (≈ 0.433 µM) in the test with Candida parapsilosis; 0.4 µg/mL (≈ 0.433 µM) against Pichia kudriavzevii; 0.4 µg/mL (≈ 0.433 µM) against Nakaseomyces glabratus; 0.8 µg/mL (≈ 0.866 µM) against Aspergillus niger.

For `OC(Cn1cncn1)(Cn1cncn1)c1ccc(F)cc1F` [FLUCONAZOLE], the minimal inhibitory concentration (MIC) against Candida albicans was 0.8 µg/mL (≈ 2.61 µM); against Saccharomyces cerevisiae, 0.8 µg/mL (≈ 2.61 µM); with Candida parapsilosis, 0.8 µg/mL (≈ 2.61 µM); in the test on Pichia kudriavzevii, 50 µg/mL (≈ 163 µM); against Nakaseomyces glabratus, 50 µg/mL (≈ 163 µM); against Aspergillus niger it was > 100 µg/mL.
